Laboratory results taken from paper PMC12310023 (PLOS Neglected Tropical Diseases, 2025).

Test system: NLuc-expressing C. parvum
Assay: NLuc C. parvum IFNγ-KO mouse infection model, oocyst shedding
Assay type: in vivo

With `CC(C)(CO)Cn1nc(-c2ccc3cc(OC4CC4)ccc3c2)c(C(N)=O)c1N` [compound 1708] the “RLU standardized by fecal weight” value (15 mg/kg x 3 days, group I, day 6 p.i., Cp Mouse Efficacy 2) was 251957 RLU, the “RLU standardized by fecal weight” value (15 mg/kg x 3 days, group I, day 7 p.i., Cp Mouse Efficacy 2) was 85920 RLU and the “RLU standardized by fecal weight” value (15 mg/kg x 3 days, group I, day 8 p.i., Cp Mouse Efficacy 2) was 79354 RLU. For the same molecule, the “RLU standardized by fecal weight” value (15 mg/kg x 3 days, group I, day 9 p.i., Cp Mouse Efficacy 2) was 5065 RLU, the “RLU standardized by fecal weight” value (15 mg/kg x 3 days, group I, day 10 p.i., Cp Mouse Efficacy 2) was 1311 RLU and the “RLU standardized by fecal weight” value (15 mg/kg x 3 days, group I, day 13 p.i., Cp Mouse Efficacy 2) was 474 RLU. The “RLU standardized by fecal weight” value (15 mg/kg x 3 days, group I, day 15 p.i., Cp Mouse Efficacy 2) was 57 RLU, the “RLU standardized by fecal weight” value (15 mg/kg x 3 days, group I, day 17 p.i., Cp Mouse Efficacy 2) was 57 RLU and the “RLU standardized by fecal weight” value (15 mg/kg x 3 days, group I, day 20 p.i., Cp Mouse Efficacy 2) was 227 RLU. For the same molecule, the “RLU Raw” value (30 mg/kg QD x3, group G, Day 6, Cp Mouse Efficacy 1) was 1295216 RLU, the “RLU Raw” value (30 mg/kg QD x3, group G, Day 7, Cp Mouse Efficacy 1) was 1222624 RLU and the “RLU Raw” value (30 mg/kg QD x3, group G, Day 8, Cp Mouse Efficacy 1) was 619376 RLU. For the same molecule, the “RLU Raw” value (30 mg/kg QD x3, group G, Day 9, Cp Mouse Efficacy 1) was 66208 RLU, the “RLU Raw” value (30 mg/kg QD x3, group G, Day 10, Cp Mouse Efficacy 1) was 17152 RLU and the “RLU Raw” value (30 mg/kg QD x3, group G, Day 13, Cp Mouse Efficacy 1) was 2912 RLU. For the same molecule, the “RLU Raw” value (30 mg/kg QD x3, group G, Day 15, Cp Mouse Efficacy 1) was 4896 RLU, the “RLU Raw” value (30 mg/kg QD x3, group G, Day 17, Cp Mouse Efficacy 1) was 1792 RLU and the “RLU Raw” value (30 mg/kg QD x3, group G, Day 20, Cp Mouse Efficacy 1) was 7008 RLU. For the same molecule, the “RLU standardized by fecal weight” value (30 mg/kg QD x3, group G, day 6 p.i., Cp Mouse Efficacy 1) was 182425 RLU, the “RLU standardized by fecal weight” value (30 mg/kg QD x3, group G, day 7 p.i., Cp Mouse Efficacy 1) was 166343 RLU and the “RLU standardized by fecal weight” value (30 mg/kg QD x3, group G, day 8 p.i., Cp Mouse Efficacy 1) was 154844 RLU. The “RLU standardized by fecal weight” value (30 mg/kg QD x3, group G, day 9 p.i., Cp Mouse Efficacy 1) was 14087 RLU, the “RLU standardized by fecal weight” value (30 mg/kg QD x3, group G, day 10 p.i., Cp Mouse Efficacy 1) was 2907 RLU and the “RLU standardized by fecal weight” value (30 mg/kg QD x3, group G, day 13 p.i., Cp Mouse Efficacy 1) was 391 RLU. For the same molecule, the “RLU standardized by fecal weight” value (30 mg/kg QD x3, group G, day 15 p.i., Cp Mouse Efficacy 1) was 401 RLU, the “RLU standardized by fecal weight” value (30 mg/kg QD x3, group G, day 17 p.i., Cp Mouse Efficacy 1) was 224 RLU and the “RLU standardized by fecal weight” value (30 mg/kg QD x3, group G, day 20 p.i., Cp Mouse Efficacy 1) was 904 RLU. The “RLU Raw” value (30 mg/kg x 1 days, group F, Day 6, Cp Mouse Efficacy 2) was 255712 RLU, the “RLU Raw” value (30 mg/kg x 1 days, group F, Day 7, Cp Mouse Efficacy 2) was 157696 RLU and the “RLU Raw” value (30 mg/kg x 1 days, group F, Day 8, Cp Mouse Efficacy 2) was 335600 RLU. For the same molecule, the “RLU Raw” value (30 mg/kg x 1 days, group F, Day 9, Cp Mouse Efficacy 2) was 101760 RLU, the “RLU Raw” value (30 mg/kg x 1 days, group F, Day 10, Cp Mouse Efficacy 2) was 181040 RLU and the “RLU Raw” value (30 mg/kg x 1 days, group F, Day 13, Cp Mouse Efficacy 2) was 15056 RLU. For the same molecule, the “RLU Raw” value (30 mg/kg x 1 days, group F, Day 15, Cp Mouse Efficacy 2) was 22080 RLU, the “RLU Raw” value (30 mg/kg x 1 days, group F, Day 17, Cp Mouse Efficacy 2) was 4144 RLU and the “RLU Raw” value (30 mg/kg x 1 days, group F, Day 20, Cp Mouse Efficacy 2) was 2768 RLU. The “RLU standardized by fecal weight” value (30 mg/kg x 1 days, group F, day 6 p.i., Cp Mouse Efficacy 2) was 39645 RLU, the “RLU standardized by fecal weight” value (30 mg/kg x 1 days, group F, day 7 p.i., Cp Mouse Efficacy 2) was 24640 RLU and the “RLU standardized by fecal weight” value (30 mg/kg x 1 days, group F, day 8 p.i., Cp Mouse Efficacy 2) was 55471 RLU. For the same molecule, the “RLU standardized by fecal weight” value (30 mg/kg x 1 days, group F, day 9 p.i., Cp Mouse Efficacy 2) was 16820 RLU, the “RLU standardized by fecal weight” value (30 mg/kg x 1 days, group F, day 10 p.i., Cp Mouse Efficacy 2) was 20342 RLU and the “RLU standardized by fecal weight” value (30 mg/kg x 1 days, group F, day 13 p.i., Cp Mouse Efficacy 2) was 2841 RLU. For the same molecule, the “RLU standardized by fecal weight” value (30 mg/kg x 1 days, group F, day 15 p.i., Cp Mouse Efficacy 2) was 3046 RLU, the “RLU standardized by fecal weight” value (30 mg/kg x 1 days, group F, day 17 p.i., Cp Mouse Efficacy 2) was 975 RLU and the “RLU standardized by fecal weight” value (30 mg/kg x 1 days, group F, day 20 p.i., Cp Mouse Efficacy 2) was 410 RLU. For the same molecule, the “RLU Raw” value (60 mg/kg QD x3, group F, Day 6, Cp Mouse Efficacy 1) was 2614768 RLU, the “RLU Raw” value (60 mg/kg QD x3, group F, Day 7, Cp Mouse Efficacy 1) was 2391472 RLU and the “RLU Raw” value (60 mg/kg QD x3, group F, Day 8, Cp Mouse Efficacy 1) was 411984 RLU. For the same molecule, the “RLU Raw” value (60 mg/kg QD x3, group F, Day 9, Cp Mouse Efficacy 1) was 18336 RLU, the “RLU Raw” value (60 mg/kg QD x3, group F, Day 10, Cp Mouse Efficacy 1) was 2272 RLU and the “RLU Raw” value (60 mg/kg QD x3, group F, Day 13, Cp Mouse Efficacy 1) was 576 RLU. For the same molecule, the “RLU Raw” value (60 mg/kg QD x3, group F, Day 15, Cp Mouse Efficacy 1) was 304 RLU, the “RLU Raw” value (60 mg/kg QD x3, group F, Day 17, Cp Mouse Efficacy 1) was 144 RLU and the “RLU Raw” value (60 mg/kg QD x3, group F, Day 20, Cp Mouse Efficacy 1) was 224 RLU. The “RLU standardized by fecal weight” value (60 mg/kg QD x3, group F, day 6 p.i., Cp Mouse Efficacy 1) was 261477 RLU, the “RLU standardized by fecal weight” value (60 mg/kg QD x3, group F, day 7 p.i., Cp Mouse Efficacy 1) was 201812 RLU and the “RLU standardized by fecal weight” value (60 mg/kg QD x3, group F, day 8 p.i., Cp Mouse Efficacy 1) was 45026 RLU. The “RLU standardized by fecal weight” value (60 mg/kg QD x3, group F, day 9 p.i., Cp Mouse Efficacy 1) was 3245 RLU, the “RLU standardized by fecal weight” value (60 mg/kg QD x3, group F, day 10 p.i., Cp Mouse Efficacy 1) was 215 RLU and the “RLU standardized by fecal weight” value (60 mg/kg QD x3, group F, day 13 p.i., Cp Mouse Efficacy 1) was 93 RLU. The “RLU standardized by fecal weight” value (60 mg/kg QD x3, group F, day 15 p.i., Cp Mouse Efficacy 1) was 78 RLU, the “RLU standardized by fecal weight” value (60 mg/kg QD x3, group F, day 17 p.i., Cp Mouse Efficacy 1) was 33 RLU and the “RLU standardized by fecal weight” value (60 mg/kg QD x3, group F, day 20 p.i., Cp Mouse Efficacy 1) was 67 RLU. For the same molecule, the “RLU Raw” value (60 mg/kg x 1 day, group E, Day 6, Cp Mouse Efficacy 2) was 814080 RLU, the “RLU Raw” value (60 mg/kg x 1 day, group E, Day 7, Cp Mouse Efficacy 2) was 339152 RLU and the “RLU Raw” value (60 mg/kg x 1 day, group E, Day 8, Cp Mouse Efficacy 2) was 54176 RLU. For the same molecule, the “RLU Raw” value (60 mg/kg x 1 day, group E, Day 9, Cp Mouse Efficacy 2) was 52848 RLU, the “RLU Raw” value (60 mg/kg x 1 day, group E, Day 10, Cp Mouse Efficacy 2) was 91232 RLU and the “RLU Raw” value (60 mg/kg x 1 day, group E, Day 13, Cp Mouse Efficacy 2) was 5456 RLU. The “RLU Raw” value (60 mg/kg x 1 day, group E, Day 15, Cp Mouse Efficacy 2) was 4592 RLU, the “RLU Raw” value (60 mg/kg x 1 day, group E, Day 17, Cp Mouse Efficacy 2) was 5520 RLU and the “RLU Raw” value (60 mg/kg x 1 day, group E, Day 20, Cp Mouse Efficacy 2) was 2336 RLU. The “RLU standardized by fecal weight” value (60 mg/kg x 1 day, group E, day 6 p.i., Cp Mouse Efficacy 2) was 144085 RLU, the “RLU standardized by fecal weight” value (60 mg/kg x 1 day, group E, day 7 p.i., Cp Mouse Efficacy 2) was 44625 RLU and the “RLU standardized by fecal weight” value (60 mg/kg x 1 day, group E, day 8 p.i., Cp Mouse Efficacy 2) was 11405 RLU. For the same molecule, the “RLU standardized by fecal weight” value (60 mg/kg x 1 day, group E, day 9 p.i., Cp Mouse Efficacy 2) was 12435 RLU, the “RLU standardized by fecal weight” value (60 mg/kg x 1 day, group E, day 10 p.i., Cp Mouse Efficacy 2) was 12329 RLU and the “RLU standardized by fecal weight” value (60 mg/kg x 1 day, group E, day 13 p.i., Cp Mouse Efficacy 2) was 774 RLU. The “RLU standardized by fecal weight” value (60 mg/kg x 1 day, group E, day 15 p.i., Cp Mouse Efficacy 2) was 399 RLU, the “RLU standardized by fecal weight” value (60 mg/kg x 1 day, group E, day 17 p.i., Cp Mouse Efficacy 2) was 726 RLU and the “RLU standardized by fecal weight” value (60 mg/kg x 1 day, group E, day 20 p.i., Cp Mouse Efficacy 2) was 525 RLU.
